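Five compound concentrations were applied to cells in 96-well plates for 48 hours; endpoints were derived by simple linear interpolation of the resulting dose-response curve. GI50: concentration for 50% inhibition of growth.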 Calls of active or inactive are those of the source. Cut-off read from the data, not from the text of the source: active = GI50 up to about 1.1 µM and inactive = higher.
Experiments:
Assay in all cases: growth of human tumour cells (NCI), 48 h
DMS-114 = tested on: DMS-114
DMS-273 = tested on: DMS-273
HCC 2998 = tested on: HCC 2998
HCT-15 = tested on: HCT-15
HOP-92 = tested on: HOP-92
K562 = tested on: K562
M19-MEL = tested on: M19-MEL
MOLT-4 = tested on: MOLT-4
NCI-H226 = tested on: NCI-H226
NCI-H23 = tested on: NCI-H23
RPMI-8226 = tested on: RPMI-8226
RXF 393 = tested on: RXF 393
SF-268 = tested on: SF-268
SF-295 = tested on: SF-295
SK-MEL-2 = tested on: SK-MEL-2
SK-OV-3 = tested on: SK-OV-3
UACC-257 = tested on: UACC-257
A549 = tested on: A549
NCI-H522 = tested on: NCI-H522
SNB-19 = tested on: SNB-19

Row | SMILES | GI50 (DMS-114) | GI50 (DMS-273) | GI50 (HCC 2998) | GI50 (HCT-15) [µM] | GI50 (HOP-92) | GI50 (K562) | GI50 (M19-MEL) | GI50 (MOLT-4) | GI50 (NCI-H226) | GI50 (NCI-H23) | GI50 (RPMI-8226) | GI50 (RXF 393) | GI50 (SF-268) | GI50 (SF-295) | GI50 (SK-MEL-2) | GI50 (SK-OV-3) | GI50 (UACC-257) | GI50 (A549) | GI50 (NCI-H522) | GI50 (SNB-19)
1 | Nc1c(-c2ccccc2[N+](=O)[O-])nc2ccccn12 | > 100 µM (inactive) | > 100 µM (inactive) | > 100 µM (inactive) | > 100 | > 100 µM (inactive) | > 100 µM (inactive) | > 100 µM (inactive) | > 100 µM (inactive) | > 100 µM (inactive) | > 100 µM (inactive) | > 100 µM (inactive) | > 100 µM (inactive) | > 100 µM (inactive) | > 100 µM (inactive) | > 100 µM (inactive) | > 100 µM (inactive) | > 100 µM (inactive) |  |  | 
2 | O=c1n(Cc2ccccc2)c2ccccc2n1CC1CS1 (configuration not stated) | > 100 µM (inactive) | > 100 µM (inactive) | > 100 µM (inactive) | > 100 | > 100 µM (inactive) | > 100 µM (inactive) | > 100 µM (inactive) | > 100 µM (inactive) | > 100 µM (inactive) |  | > 100 µM (inactive) |  | > 100 µM (inactive) | > 100 µM (inactive) | > 100 µM (inactive) | > 100 µM (inactive) |  | > 100 µM (inactive) | > 100 µM (inactive) | > 100 µM (inactive)
3 | COc1ccc(C2C(Cl)C(=O)N2NC(=O)c2ccc(NC(C)=O)cc2)cc1OC (configuration not stated) |  |  | > 100 µM (inactive) |  | > 100 µM (inactive) | > 100 µM (inactive) | > 100 µM (inactive) | > 100 µM (inactive) | > 100 µM (inactive) | > 100 µM (inactive) | > 100 µM (inactive) |  | > 100 µM (inactive) | > 100 µM (inactive) | > 100 µM (inactive) | > 100 µM (inactive) | > 100 µM (inactive) | > 100 µM (inactive) | > 100 µM (inactive) | > 100 µM (inactive)
4 | CCn1cnnc1-c1nsc2ccccc12 | > 100 µM (inactive) | > 100 µM (inactive) | > 100 µM (inactive) | > 100 | 45.3 µM (inactive) | 68.1 µM (inactive) | > 100 µM (inactive) | > 10 µM (inactive) |  | > 100 µM (inactive) | > 100 µM (inactive) | 23.2 µM (inactive) | > 100 µM (inactive) |  | > 100 µM (inactive) |  | > 100 µM (inactive) | > 100 µM (inactive) |  | > 100 µM (inactive)
5 | CC1(C)OCC=CCO1 |  |  | > 100 µM (inactive) |  | > 100 µM (inactive) | 67.8 µM (inactive) |  | > 100 µM (inactive) | > 100 µM (inactive) | > 100 µM (inactive) | > 100 µM (inactive) | > 100 µM (inactive) | > 100 µM (inactive) | > 100 µM (inactive) | > 100 µM (inactive) | > 100 µM (inactive) | > 100 µM (inactive) | > 100 µM (inactive) | 69.8 µM (inactive) | > 100 µM (inactive)

Reference: ChEMBL document CHEMBL1201862, “PubChem BioAssay data set” (2004)
